In US20250326713A1, “INHIBITORS OF MsbA AS ANTIBIOTICS, PHARMACEUTICAL COMPOSITIONS, AND USES THEREOF” (priority 2022, published 2025) one finds MIC data, which are given here for 29 compounds.

≈ marks a conversion by molar mass, not a printed value.

Broadly, the MIC is the smallest concentration in the dilution series that meets the test's criterion for growth inhibition. High values mean a less susceptible organism, low ones a more susceptible organism.

The test system of the first assay is various strains of bacteria. The assay is described as follows: Antimicrobial potency: bacterial growth inhibition by OD600 (Antibacterial assay 1, MITC95). It counts as cell-based, A. baumannii. The conditions noted are these: Acinetobacter baumannii, 20 h, lowest concentration giving >95% growth inhibition, CAMHB, 18-22 h. As to the method: The concentrations of compounds required to inhibit the growth of various strains of bacteria were determined in an assay that assessed bacterial growth by measuring optical density at 600 nm (OD600). Test articles were dissolved in 100% DMSO and serially diluted two-fold from their maximal concentration in 100% DMSO. Forty-nine μl of bacterial inoculum (at approx. 2×10^5 cfu/mL in CAMHB) were put into wells of an assay plate. One μl of compound or DMSO was transferred from the source plate to the assay plate. The completed assay plates were then incubated at 35+2degC for 18-22 h. Bacterial growth was measured by reading OD600 on a spectrophotometer. Data analysis calculates the lowest concentration of compound which results in >95% growth inhibition (minimum inhibitory threshold concentration 95%, MITC95).
In the case of `O=C(O)c1cc(OC[C@H]2C[C@@H](NCc3ccc(NS(=O)(=O)N4CCOC(c5ccc(F)cc5)C4)c(C(=O)O)c3)C2)ccc1NS(=O)(=O)c1cnn(-c2ccc(F)cc2)c1` (some centres unmarked) [Compound 88], the MIC came to 0.0122 µM (≈ 0.0104 µg/mL).

For the compound `O=C(O)c1cc(OC[C@H]2C[C@@H](NCc3ccc(NS(=O)(=O)N4CCOC(c5ccc(F)cc5)C4)c(C(=O)O)c3)C2)ccc1NS(=O)(=O)c1cnn(-c2ccc(Cl)cc2)c1` (some centres unmarked) [Compound 89], the MIC is below 0.00306 µM.

`O=C(O)c1cc(CN[C@H]2C[C@@H](COc3ccc(NS(=O)(=O)c4cnc(-c5ccc(Cl)cc5)s4)c(C(=O)O)c3)C2)ccc1NS(=O)(=O)CCc1ccc(F)cc1` [Compound 90]: the MIC came out at 0.00865 µM (≈ 0.00717 µg/mL).

In turn, `Cn1nc(-c2ccc(F)cc2)cc1S(=O)(=O)Nc1ccc(CN[C@H]2C[C@@H](COc3ccc(NS(=O)(=O)c4cnn(-c5ccc(Cl)cc5)c4)c(C(=O)O)c3)C2)cc1C(=O)O` [Compound 91] returned an MIC of 0.0173 µM (≈ 0.015 µg/mL).

The compound `O=C(O)c1cc(OC[C@H]2C[C@@H](NCc3ccc(NS(=O)(=O)N4CCOC(c5ccc(F)cc5)C4)c(C(=O)O)c3)C2)ccc1NS(=O)(=O)c1cnc(-c2ccc(F)cc2)s1` (some centres unmarked) [Compound 92] had an MIC of 0.00611 µM (≈ 0.00532 µg/mL).

Consider `O=C(O)c1cc(CN[C@H]2C[C@@H](COc3ccc(NS(=O)(=O)c4cnc(-c5ccc(Cl)cc5)s4)c(C(=O)O)c3)C2)ccc1NS(=O)(=O)CCc1ccc(Cl)cc1` [Compound 93], for which the MIC was 0.00611 µM (≈ 0.00517 µg/mL).

Take `O=C(O)c1cc(CN[C@H]2C[C@@H](COc3ccc(NS(=O)(=O)c4ccc(-c5ccc(Cl)cc5)s4)c(C(=O)O)c3)C2)ccc1NS(=O)(=O)CCc1ccc(Cl)cc1` [Compound 94]: the MIC amounted to 0.0086 µM (≈ 0.00727 µg/mL).

`O=C(O)c1cc(CN[C@H]2C[C@@H](COc3ccc(NS(=O)(=O)N4CCOC(c5ccc(F)cc5)C4)c(C(=O)O)c3)C2)ccc1NS(=O)(=O)N1CCOC(c2ccc(F)cc2)C1` (some centres unmarked) [Compound 95] returned an MIC of 0.0122 µM (≈ 0.0106 µg/mL).

`O=C(O)c1cc(OC[C@H]2C[C@@H](NCc3ccc(NS(=O)(=O)N4CC(Oc5ccc(F)cc5)C4)c(C(=O)O)c3)C2)ccc1NS(=O)(=O)c1cnc(-c2ccc(Cl)cc2)s1` [Compound 96] gave an MIC of 0.0122 µM (≈ 0.0106 µg/mL).

For `O=C(O)c1cc(CN2CC(Oc3ccc(NS(=O)(=O)c4ccc(-c5ccc(Cl)cc5)cc4)c(C(=O)O)c3)C2)ccc1NS(=O)(=O)c1ccc(-c2ccc(Cl)cc2)cc1` [Compound 97, 5-((1-(3-carboxy-4-((4′-chloro-(1,l′-biphenyl))-4-sulfonamido)benzyl)azetidin-3-yl)oxy)-2-((4′-chloro-(1,l′-biphenyl))-4-sulfonamido)benzoic acid], the MIC is 0.0978 µM (≈ 0.084 µg/mL).

In the case of `O=C(O)c1cc(CN2CC(Oc3ccc(NS(=O)(=O)c4ccc(-c5ccc(F)cc5)cc4)c(C(=O)O)c3)C2)ccc1NS(=O)(=O)c1ccc(-c2ccc(F)cc2)cc1` [Compound 98], the MIC was found to be 0.0692 µM (≈ 0.0572 µg/mL).

As for `O=C(O)c1cc(CN2CC(Oc3ccc(NS(=O)(=O)c4ccc(-c5ccc(F)cc5)cc4)c(C(=O)O)c3)C2)ccc1NS(=O)(=O)CCc1ccc(Cl)cc1` [Compound 99, 5-((1-(3-carboxy-4-((2-(4-chlorophenyl)ethyl)sulfonamido)benzyl)azetidin-3-yl)oxy)-2-((4′-fluoro-[1, l′-biphenyl])-4-sulfonamido)benzoic acid], the MIC turned out to be 0.0245 µM (≈ 0.0195 µg/mL).

Take `O=C(O)c1cc(CN2CC(Oc3ccc(NS(=O)(=O)c4ccc(-c5ccc(F)cc5)cc4)c(C(=O)O)c3)C2)ccc1NS(=O)(=O)c1cnn(-c2ccc(F)cc2)c1` [Compound 100]: the MIC amounted to 0.0489 µM (≈ 0.0399 µg/mL).

`O=C(O)c1cc(CN2CC(Oc3ccc(NS(=O)(=O)c4ccc(-c5cccc(Cl)c5)cc4)c(C(=O)O)c3)C2)ccc1NS(=O)(=O)CCc1ccc(Cl)cc1` [Compound 101] had an MIC of 0.0245 µM (≈ 0.0199 µg/mL).

The compound `O=C(O)c1cc(CN2CC(Oc3ccc(NS(=O)(=O)c4ccc(-c5ccc(F)cc5)cc4)c(C(=O)O)c3)C2)ccc1NS(=O)(=O)CCc1ccc(F)cc1` [Compound 102] came in with an MIC of 0.0489 µM (≈ 0.038 µg/mL).

The compound `O=C(O)c1cc(CN2CC(Oc3ccc(NS(=O)(=O)c4ccc(-c5ccc(Cl)cc5)cc4)c(C(=O)O)c3)C2)ccc1NS(=O)(=O)c1ccc(OC(F)F)cc1` [Compound 103] came in with an MIC of 0.0245 µM (≈ 0.0199 µg/mL).

In turn, `O=C(O)c1cc(CN2CC(Oc3ccc(NS(=O)(=O)c4ccc(-c5ccc(Cl)cc5)cc4)c(C(=O)O)c3)C2)ccc1NS(=O)(=O)c1cnn(-c2ccc(F)cc2)c1` [Compound 104] gave an MIC of 0.0346 µM (≈ 0.0288 µg/mL).

Regarding `O=C(O)c1cc(CN2CC(Oc3ccc(NS(=O)(=O)c4ccc(-c5ccc(Cl)cc5)cc4)c(C(=O)O)c3)C2)ccc1NS(=O)(=O)c1ccc(Oc2ccccc2)nc1` [Compound 105], the MIC was 0.0245 µM (≈ 0.0206 µg/mL).

In turn, `Cn1nc(-c2ccccc2)cc1S(=O)(=O)Nc1ccc(CN2CC(Oc3ccc(NS(=O)(=O)c4ccc(-c5ccc(Cl)cc5)cc4)c(C(=O)O)c3)C2)cc1C(=O)O` [Compound 106] displayed an MIC of 0.0489 µM (≈ 0.0405 µg/mL).

`O=C(O)c1cc(OC2CN(Cc3ccc(NS(=O)(=O)c4ccc(-c5ccc(Cl)cc5)s4)c(C(=O)O)c3)C2)ccc1NS(=O)(=O)c1ccc(-c2ccc(F)cc2)cc1` [Compound 107] registered an MIC of 0.0489 µM (≈ 0.0415 µg/mL).

Consider `CCCCc1ccc(S(=O)(=O)Nc2ccc(CN3CC(Oc4ccc(NS(=O)(=O)c5ccc(-c6ccc(F)cc6)cc5)c(C(=O)O)c4)C3)cc2C(=O)O)cc1` [Compound 108], for which the MIC was 0.0489 µM (≈ 0.0385 µg/mL).

In turn, `O=C(O)c1cc(OC2CN(Cc3ccc(NS(=O)(=O)c4cnn(-c5ccc(F)cc5)c4)c(-c4nn[nH]n4)c3)C2)ccc1NS(=O)(=O)c1cnn(-c2ccc(F)cc2)c1` [Compound 114, 2-((1-(4-fluorophenyl)-1H-pyrazole)-4-sulfonamido)-5-((1-(4-((1-(4-fluorophenyl)-1H-pyrazole)-4-sulfonamido)-3-(2H-tetrazol-5-yl)benzyl)azetidin-3-yl)oxy)benzoic acid] displayed an MIC of 0.246 µM (≈ 0.204 µg/mL).

Turning to `O=C(O)c1cc(CN2CC(Oc3ccc(NS(=O)(=O)c4cnn(-c5ccc(F)cc5)c4)c(C(=O)O)c3)C2)ccc1NS(=O)(=O)c1cnn(-c2ccc(F)cc2)c1` [Compound 115, 5-((1-(3-carboxy-4-(1-(4-fluorophenyl)-1H-pyrazole-4-sulfonamido)benzyl)azetidin-3-yl)oxy)-2-(1-(4-fluorophenyl)-1H-pyrazole-4-sulfonamido)benzoic acid], the MIC came to 0.277 µM (≈ 0.223 µg/mL).

Consider `O=C(O)c1cc(CN2CC(Oc3ccc(NS(=O)(=O)c4coc(-c5ccc(F)cc5)n4)c(C(=O)O)c3)C2)ccc1NS(=O)(=O)c1coc(-c2ccc(F)cc2)n1` [Compound 116], for which the MIC was found to be 0.0978 µM (≈ 0.079 µg/mL).

Compound `O=C(O)c1cc(CN2CC(Oc3ccc(NS(=O)(=O)c4cnn(-c5ccc(Cl)cc5)c4)c(C(=O)O)c3)C2)ccc1NS(=O)(=O)c1cnn(-c2ccc(Cl)cc2)c1` [Compound 117] gave an MIC of 0.0489 µM (≈ 0.041 µg/mL).

The compound `O=C(O)c1cc(CN2CC(Oc3ccc(NS(=O)(=O)c4cnn(-c5ccc(F)cc5)n4)c(C(=O)O)c3)C2)ccc1NS(=O)(=O)c1cnn(-c2ccc(F)cc2)n1` [Compound 118] displayed an MIC of 0.0245 µM (≈ 0.0198 µg/mL).

Compound `O=C(O)c1cc(CN2CC(Oc3ccc(NS(=O)(=O)c4cnc(-c5ccc(F)cc5)o4)c(C(=O)O)c3)C2)ccc1NS(=O)(=O)c1cnc(-c2ccc(F)cc2)o1` [Compound 120] showed an MIC of 0.0489 µM (≈ 0.0395 µg/mL).

As to `O=C(O)c1cc(CN2CC(Oc3ccc(NS(=O)(=O)c4cnn(-c5ccc(Cl)cn5)c4)c(C(=O)O)c3)C2)ccc1NS(=O)(=O)c1cnn(-c2ccc(Cl)cn2)c1` [Compound 121], the MIC turned out to be 0.277 µM (≈ 0.233 µg/mL).

Still in this assay, the particulars now being: lowest concentration giving >95% growth inhibition, CAMHB, 18-22 h.
`O=C(O)c1cc(CNC2CC(COc3ccc(NS(=O)(=O)c4cnn(-c5ccc(Cl)cc5)c4)c(C(=O)O)c3)C2)ccc1NS(=O)(=O)c1cnn(-c2ccc(Cl)cc2)c1` (centres unmarked) [Compound 87, 5-(((1s, 3s)-3-((3-carboxy-4-((1-(4-chlorophenyl)-1H-pyrazole)-4-sulfonamido)benzyl)amino)cyclobutyl)methoxy)-2-((1-(4-chlorophenyl)-1H-pyrazole)-4-sulfonamido)benzoic acid] yielded an MIC of 0.0245 µM (≈ 0.0212 µg/mL).
